According to US7601736B2, “Pyridine derivatives, a process for their preparation and a pharmaceutical composition containing the same” (SK Chemicals Co., Ltd., priority 2003, dated 2009):

System: TNF-α
Experiment: Cytokine inhibitory activity in cells: LPS-induced TNF-α in RAW 264.7
Assay type: cell-based, murine
Conditions: for inhibition at 1 µM / inhibition at 10 µM / inhibition at 100 µM / inhibition at 1000 µM: Mus musculus, RAW264.7, read-out: TNF-α Inhibition Rate (%); for inhibition at 1 µM / inhibition at 10 µM / inhibition at 100 µM / inhibition at 1000 µM / TNF-α Inhibition Rate (%): RAW 264.7, LPS 1 μg/mL; for inhibitory activity in RAW 264.7 cell line on the production of TNF-α, in words: compared to the control compounds
Description: General reagents used were purchased from Sigma-Aldrich chem. Co. and cytokine inhibitory activities were tested as follows. Mediums and reagents used in cell culture were purchased from GIBCO BRL (USA), and mouse TNF-α ELISA kit was purchased from R&D system (USA). The apparatus used ELISA reader (Spectra max-Plus 384, Molecular Device, USA).
Murine macrophage cell line RAW 264.7 was kindly provided by Korean Tissue Culture Center (KTCC). The cell line was cultured in DMEM medium containing 10% FBS, in a cell culturing device at the condition of 37° C., 5% CO2. First, murine RAW 264.7 was cultured in DMEM medium containing 10% FBS for about 24 hours, and cells were planted 200 μL each in 96 well plates at the concentration of 5×10^5/mL and cultured for about 24 hours. Then, test compounds were treated at various concentrations and then reacted at 37° C. for about 1 hour, wherein 1 μg/mL of lipopolysaccharide (LPS) was added thereto and reacted at 37° C. for about 12 hours. The supernatant was recovered and the amount of murine TNF-α on the medium was quantitated using ELISA kit. Thalidomide was respectively used as a positive and a negative control to compare the activities and the results are shown in the following tables 4a -4c.

Row | Compound | inhibition at 1 µM (test conc. 1 μM) | inhibition at 10 µM (test conc. 10 μM) | inhibition at 100 µM (test conc. 100 μM) | inhibition at 1000 µM (test conc. 1 mM) | inhibitory activity in RAW 264.7 cell line on the production of TNF-α, in words | TNF-α Inhibition Rate (%) (test conc. 10 μM) | TNF-α Inhibition Rate (%) (test conc. 100 μM) | TNF-α Inhibition Rate (%) (test conc. 1 mM) | TNF-α Inhibition Rate (%) (test conc. 1 μM)
1 | Cc1cc2c(c(Cl)n1)C(=O)OCC2 [Ex. 20, 8-chloro-6-methyl-3,4-dihydro-pyrano[3,4-c]pyridine-1-on] | 15% | 21% | 31% | 41% | – | – | – | – | –
2 | O=C1OC(c2ccccc2)Cc2ccncc21 (stereo not drawn) [Ex. 120a, 3-phenyl-3,4-dihydro-pyrano[3,4-c]pyridine-1-on] | 43% | 54% | 66% | 85% | – | – | – | – | –
3 | Cc1cc2c(c(N3CCN(C)CC3)n1)C(=O)OCC2 [Ex. 34, 6-methyl-8-(4-methyl-piperazine-1-yl)-3,4-dihydro-pyrano[3,4-c]pyridine-1-on] | 58% | 62% | 70% | 80% | – | – | – | – | –
4 | Cc1nc(-c2cccs2)cc2c1C(=O)OCC2 [Ex. 97, 8-methyl-6-(thiophene-2-yl)-3,4-dihydro-pyrano[3,4-c]pyridine-1-on] | 75% | 84% | 93% | 100% | superiorities over to the control compounds | – | – | – | –
5 | O=C1OCCc2c1cnc1ccccc21 [Ex. 112, 3,4-dihydro-2-oxa-9-aza-phenanthrene-1-on] | 24% | 28% | 33% | 35% | – | – | – | – | –
6 | O=C1NCCc2ccncc21 [Ex. 116, 3,4-dihydro-2H-[2,7]naphtyridine-1-on] | – | – | – | – | – | 10% | 18% | 29% | –
7 | COc1nc(C)cc2c1C(=O)OCC2 [Ex. 22, 8-methoxy-6-methyl-3,4-dihydro-pyrano[3,4-c]pyridine-1-on] | – | 10% | 17% | 30% | – | – | – | – | –
8 | O=C1OCCc2cc(-c3ccccc3)nc(Cl)c21 [Ex. 73, 8-chloro-6-phenyl-3,4-dihydro-pyrano[3,4-c]pyridine-1-on] | 56% | 63% | 72% | 80% | – | – | – | – | –
9 | Cc1cc2c(c(-c3ccco3)n1)C(=O)OCC2 [Ex. 27, 6-methyl-8-furan-2-yl-3,4-dihydro-pyrano[3,4-c]pyridine-1-on] | 30% | 43% | 68% | 81% | – | – | – | – | –
10 | O=C1NC(c2ccccc2)Cc2ccncc21 (stereo not drawn) [Ex. 120b, 3-phenyl-3,4-dihydro-2H-[2,7]naphtyridine-1-on] | – | – | – | – | – | 30% | 32% | 42% | 26%
11 | O=C1OCCc2cc(-c3ccccc3)ncc21 [Ex. 68, 6-phenyl-3,4-dihydro-pyrano[3,4-c]pyridine-1-on] | 50% | 58% | 65% | 76% | – | – | – | – | –
12 | Cc1nc(Cl)c2c(c1-c1ccccc1)CCOC2=O [Ex. 61, 8-chloro-6-methyl-5-phenyl-3,4-dihydro-pyrano[3,4-c]pyridine-1-on] | 87% | 100% | 100% | 100% | superiorities over to the control compounds | – | – | – | –
13 | Cc1nc(-c2ccc(N(C)C)cc2)cc2c1C(=O)OCC2 [Ex. 100, 6-(4-(dimethylamino)phenyl)-8-methyl-3,4-dihydro-pyrano[3,4-c]pyridine-1-on] | – | 9% | 18% | 29% | – | – | – | – | –
14 | Cc1cc2c(c(-c3ccccn3)n1)C(=O)OCC2 [Ex. 29, 6-methyl-8-pyridine-2-yl-3,4-dihydro-pyrano[3,4-c]pyridine-1-on] | 10% | 15% | 18% | 30% | – | – | – | – | –
15 | Cc1nc(-c2ccc3c(c2)OCO3)cc2c1C(=O)OCC2 [Ex. 99, 6-(benzo[d][1,3]dioxol-6-yl)-8methyl-3,4-dihydro-pyrano[3,4c]pyridine-1-on] | – | – | – | – | – | 19% | 22% | 35% | 9%
16 | Cc1cc2c(c(NCc3ccccc3)n1)C(=O)OCC2 [Ex. 51, 8-benzylamino-6-methyl-3,4-dihydro-pyrano[3,4-c]pyridine-1-on] | 9% | 15% | 21% | 30% | – | – | – | – | –
17 | Cc1cc2c(c(-c3ccccc3)n1)C(=O)OCC2 [Ex. 46, 6-methyl-8-phenyl-3,4-dihydro-pyrano[3,4-c]pyridine-1-on] | 3% | 9% | 19% | 29% | – | – | – | – | –
18 | Cc1cc2c(c(-c3cccs3)n1)C(=O)OCC2 [Ex. 28, 6-methyl-8-thiophene-2-yl-3,4-dihydro-pyrano[3,4-c]pyridine-1-on] | 8% | 27% | 37% | 59% | – | – | – | – | –
19 | O=C1CCC(N2C(=O)c3ccccc3C2=O)C(=O)N1 (stereo not drawn) [Thalidomide, reference compound] | 8% | 12% | 20% | 21% | – | – | – | – | –
20 | Cc1ncc2c(c1-c1ccccc1)CCOC2=O [Ex. 62, 6-methyl-5-phenyl-3,4-dihydro-pyrano[3,4-c]pyridine-1-on] | 60% | 78% | 89% | 100% | superiorities over to the control compounds | – | – | – | –
21 | Cc1nc(Cl)cc2c1C(=O)OCC2 [Ex. 96, 6-chloro-8-methyl-3,4-dihydro-pyrano[3,4-c]pyridine-1-on] | 38% | 46% | 56% | 63% | – | – | – | – | –
22 | Cc1ccc(Nc2nc(C)cc3c2C(=O)OCC3)cc1 [Ex. 39, 6-methyl-8-p-tolylamino-3,4-dihydro-pyrano[3,4-c]pyridine-1-on] | 9% | 22% | 31% | 40% | – | – | – | – | –
23 | Cc1cc2c(c(Nc3ccc(F)cc3)n1)C(=O)OCC2 [Ex. 35, 8-(4-fluoro-phenylamino)-6-methyl-3,4-dihydro-pyrano[3,4-c]pyridine-1-on] | 9% | 17% | 26% | 32% | – | – | – | – | –
24 | Cc1nc(O)c2c(c1-c1ccccc1)CCOC2=O [Ex. 60, 8-hydroxy-6-methyl-5-phenyl-3,4-dihydro-pyrano[3,4-c]pyridine-1-on] | 39% | 48% | 56% | 78% | – | – | – | – | –
25 | Cc1nc(-c2ccco2)cc2c1C(=O)OCC2 [Ex. 98, 6-(furan-2-yl)-8-methyl-3,4-dihydro-pyrano[3,4-c]pyridine-1-on] | 56% | 64% | 72% | 87% | – | – | – | – | –
26 | S=C1OCCc2ccncc21 [Ex. 113, 3,4-dihydro-pyrano[3,4-c]pyridine-1-thione] | 10% | 19% | 28% | 42% | – | – | – | – | –
27 | Cc1cc2c(c(Nc3ccc(Cl)cc3)n1)C(=O)OCC2 [Ex. 37, 8-(4-chloro-phenylamino)-6-methyl-3,4-dihydro-pyrano[3,4-c]pyridine-1-on] | 54% | 69% | 78% | 89% | – | – | – | – | –
28 | Cc1cc2c(c(Oc3ccccc3)n1)C(=O)OCC2 [Ex. 50, 6-methyl-8-phenoxy-3,4-dihydro-pyrano[3,4-c]pyridine-1-on] | 5% | 9% | 19% | 25% | – | – | – | – | –
29 | Cc1cc2c(c(C)n1)C(=O)OCC2 [Ex. 26, 6,8-dimethyl-3,4-dihydro-pyrano[3,4-c]pyridine-1-on] | – | 6% | 17% | 28% | – | – | – | – | –
30 | Cc1cc2c(c(-c3ccc(Cl)cc3)n1)C(=O)OCC2 [Ex. 31, 8-(4-chloro-phenyl)-6-methyl-3,4-dihydro-pyrano[3,4-c]pyridine-1-on] | 100% | 100% | 100% | 100% | superiorities over to the control compounds | – | – | – | –
